From US8017612B2, “Piperazine compound and use thereof as a HCV polymerase inhibitor” (priority 2006, dated 2011) come the findings set out here.

Test [1] addresses T1, HCV polymerase (NS5B) type 1b (Hepatitis C virus genotype 1b, UniProt P26663).
T1 construct: a region encoding NS5B (J Virol 1991 March, 65(3), 1105-13, 544 amino acids after deletion of 47 amino acids on the C-terminal); 6xHis (C); made in house; host or cells: Escherichia coli
Kind of test: Assay of enzyme (HCV polymerase) inhibitory activity, type 1b enzyme. Particulars: HCV polymerase inhibitory activity IC50, 1b, type 1b enzyme. The test is classed as biochemical, HCV BK strain (type 1b). The method in brief:
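Polymerase activity was followed as radiolabelled UTP incorporation by E. coli-expressed, His-tagged NS5B of HCV type 1b lacking its last 47 residues. Conditions: 2 μM UTP, 50 μM other NTPs, Mg2+ buffer at pH 7.5, 25 °C for 60 min. Inhibition relative to compound-free reactions gave IC50.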

The target of test [2] is T2, HCV polymerase (NS5B) type 1a (Hepatitis C virus genotype 1a, UniProt P26664).
T2 construct: made in house; host or cells: Escherichia coli (by the 'similar method' of the 1b enzyme)
Kind of test: Assay of enzyme (HCV polymerase) inhibitory activity, type 1a enzyme. The test is classed as biochemical, HCV type 1a (cloned from the blood of patients). The note with it: HCV polymerase inhibitory activity IC50, 1a, type 1a enzyme. Summed up: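 IC50 values derive from radioactivity of newly synthesized RNA with versus without test compound. The enzyme was C-terminally truncated type 1a NS5B, 1.5 μg/ml, run 60 min at 25° C with 3H-UTP-labelled nucleotides.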

Where only a bound is given, the exact number is not on record here.

Turning to `O=C(NCc1ccc(OC(F)(F)F)cc1)[C@H]1CN(c2cnc3cncnc3n2)CCN1S(=O)(=O)c1ccc(Br)s1` [Example 789, (R)-1-(5-bromo-thiophene-2-sulfonyl)-4-pteridin-7-yl-piperazine-2-carboxylic acid 4-trifluoromethoxy-benzylamide], the IC50 in test [1] and in test [2] was < 100 nM each time.
As to `O=C(NCc1ccc(OC(F)(F)F)cc1)[C@H]1CN(c2cnc3cncnc3n2)CCN1S(=O)(=O)c1ccc([N+](=O)[O-])cc1` [Example 790, (R)-1-(4-nitro-benzenesulfonyl)-4-pteridin-7-yl-piperazine-2-carboxylic acid 4-trifluoromethoxy-benzylamide], the IC50 in test [1] and in test [2] was < 100 nM in each case.
With `O=C(NCc1ccc(OC(F)(F)F)cc1)[C@H]1CN(c2cnc3cncnc3n2)CCN1S(=O)(=O)c1ccc(C(F)(F)F)cc1` [Example 791, (R)-4-pteridin-7-yl-1-(4-trifluoromethyl-benzenesulfonyl)-piperazine-2-carboxylic acid 4-trifluoromethoxy-benzylamide], the IC50 in test [1] and in test [2] was < 100 nM throughout.
Regarding `O=C(NCc1ccc(OC(F)(F)F)cc1)[C@H]1CN(c2cnc3cncnc3n2)CCN1S(=O)(=O)c1ccc(Cl)s1` [Example 792, (R)-1-(5-chloro-thiophene-2-sulfonyl)-4-pteridin-7-yl-piperazine-2-carboxylic acid 4-trifluoromethoxy-benzylamide], the IC50 in test [1] and in test [2] was < 100 nM throughout.
Regarding `O=C(NCc1ccc(OC(F)(F)F)cc1)[C@H]1CN(c2ccc3ncccc3n2)CCN1S(=O)(=O)c1ccc(OC(F)(F)F)cc1` [Example 793, (R)-4-[1,5]naphthyridin-2-yl-1-(4-trifluoromethoxy-benzenesulfonyl)-piperazine-2-carboxylic acid 4-trifluoromethoxy-benzylamide], the IC50 in test [1] and in test [2] was < 100 nM in each case.
Regarding `O=C(NCc1ccc(OC(F)(F)F)cc1)[C@H]1CN(c2nc3nccnc3s2)CCN1S(=O)(=O)c1ccc(OC(F)(F)F)cc1` [Example 794, (R)-4-thiazolo[4,5-b]pyrazin-2-yl-1-(4-trifluoromethoxy-benzenesulfonyl)-piperazine-2-carboxylic acid 4-trifluoromethoxy-benzylamide], the IC50 in test [1] and in test [2] was < 100 nM in each case.
Consider `O=C(NCc1c(F)c(F)c(C(F)(F)F)c(F)c1F)[C@H]1CN(c2cnc3cncnc3n2)CCN1S(=O)(=O)c1ccc(OC(F)(F)F)cc1` [Example 795, (R)-4-pteridin-7-yl-1-(4-trifluoromethoxy-benzenesulfonyl)-piperazine-2-carboxylic acid 2,3,5,6-tetrafluoro-4-trifluoromethyl-benzylamide], for which the IC50 in test [1] and in test [2] was < 100 nM throughout.
Regarding `CCc1ccc(S(=O)(=O)N2CCN(c3cnc(CO)cn3)C[C@@H]2C(=O)NCc2ccc(OC(F)(F)F)cc2)cc1` [Example 796, (R)-4-(4-ethyl-benzenesulfonyl)-5′-hydroxymethyl-3,4,5,6-tetrahydro-2H-[1,2′]bipyrazinyl-3-carboxylic acid 4-trifluoromethoxy-benzylamide], the concentration for half-maximal inhibition (IC50) in test [1] and in test [2] was < 100 nM throughout.
On to `O=C(NCc1c(Cl)cc(Cl)cc1Cl)[C@H]1CN(c2cnc3cncnc3n2)CCN1S(=O)(=O)c1ccc(OC(F)(F)F)cc1` [Example 797, (R)-4-pteridin-7-yl-1-(4-trifluoromethoxy-benzenesulfonyl)-piperazine-2-carboxylic acid 2,4,6-trichloro-benzylamide], for which the IC50 in test [1] and in test [2] was < 100 nM each time.
In the case of `O=C(NCc1ccc(OC(F)(F)F)cc1)[C@H]1CN(c2cnc3cnc(C(F)(F)F)nc3n2)CCN1S(=O)(=O)c1ccc(OC(F)(F)F)cc1` [Example 798, (R)-1-(4-trifluoromethoxy-benzenesulfonyl)-4-(2-trifluoromethyl-pteridin-7-yl)-piperazine-2-carboxylic acid 4-trifluoromethoxy-benzylamide], the results for the IC50 in test [1] and in test [2] were < 100 nM and 100 to 1000 nM, respectively.
